According to patent US20230233569A1 (Revolution Medicines, Inc., priority 2020, published 2023):

Legend:
Assay in all cases: Ras-Raf disruption / FRET / MOA assay (BRAF RBD)
Format in all cases: biochemical
KRAS G12D = KRAS G12D (Homo sapiens, UniProt P01116+P62937, G12D); conditions: Ras-Raf disruption, with Cyclophilin A; read-out: KRAS G12D FRET data IC50
Outline: (§1)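 Compound-induced Ras–Cyclophilin A ternary complex disrupting BRAF RBD binding, read as IC50 from reduced TR-FRET ratio relative to DMSO. Final: Ras-GMPPNP 12.5 nM, BRAF RBD 50 nM, Cyclophilin A 25 μM, top compound 30 μM (3-fold, 10 points); 3 h at 25 °C, then 1.5 h with detection antibodies.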

KRAS G12S = KRAS G12S (Homo sapiens, UniProt P01116+P62937, G12S); conditions: Ras-Raf disruption, with Cyclophilin A; read-out: KRAS G12S FRET data IC50
Chain of KRAS G12S (P01116 1-169 isoform P01116-2 G12S limits assumed): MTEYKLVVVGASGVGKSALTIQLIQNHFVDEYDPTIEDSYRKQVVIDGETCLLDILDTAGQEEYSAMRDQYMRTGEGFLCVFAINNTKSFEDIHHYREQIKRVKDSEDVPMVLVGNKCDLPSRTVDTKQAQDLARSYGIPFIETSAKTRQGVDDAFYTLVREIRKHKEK
Chain of KRAS G12S (P62937 whole entry): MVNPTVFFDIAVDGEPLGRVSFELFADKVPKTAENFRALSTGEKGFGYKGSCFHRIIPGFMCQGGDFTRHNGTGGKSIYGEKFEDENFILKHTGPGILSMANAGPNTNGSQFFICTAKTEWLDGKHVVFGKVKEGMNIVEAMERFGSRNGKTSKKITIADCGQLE
Outline: as §1

KRAS G12V = KRAS G12V (Homo sapiens, UniProt P01116+P62937, G12V); conditions: Ras-Raf disruption, with Cyclophilin A; read-out: KRAS G12V FRET data IC50
Chain of KRAS G12V (P01116 1-169 isoform P01116-2 G12V limits assumed): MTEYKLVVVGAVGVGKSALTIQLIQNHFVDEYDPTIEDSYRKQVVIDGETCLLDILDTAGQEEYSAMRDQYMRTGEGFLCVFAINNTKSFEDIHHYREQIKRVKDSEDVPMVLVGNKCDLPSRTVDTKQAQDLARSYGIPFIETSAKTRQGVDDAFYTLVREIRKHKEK
Chain of KRAS G12V (P62937 whole entry): as the sequence (P62937 whole entry) above
Outline: as §1

KRAS G13C = KRAS G13C (Homo sapiens, UniProt P01116+P62937, G13C); conditions: Ras-Raf disruption, with Cyclophilin A; read-out: KRAS G13C FRET data IC50
Chain of KRAS G13C (P01116 1-169 isoform P01116-2 G13C limits assumed): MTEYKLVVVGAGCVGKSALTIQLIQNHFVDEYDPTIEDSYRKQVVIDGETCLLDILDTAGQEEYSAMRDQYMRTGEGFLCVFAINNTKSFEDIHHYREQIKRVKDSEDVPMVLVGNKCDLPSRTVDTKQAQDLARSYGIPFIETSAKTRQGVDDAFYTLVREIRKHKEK
Chain of KRAS G13C (P62937 whole entry): as the sequence (P62937 whole entry) above
Outline: as §1

KRAS G13D = KRAS G13D (Homo sapiens, UniProt P01116+P62937, G13D); conditions: Ras-Raf disruption, with Cyclophilin A; read-out: KRAS G13D FRET data IC50
Chain of KRAS G13D (P01116 1-169 isoform P01116-2 G13D limits assumed): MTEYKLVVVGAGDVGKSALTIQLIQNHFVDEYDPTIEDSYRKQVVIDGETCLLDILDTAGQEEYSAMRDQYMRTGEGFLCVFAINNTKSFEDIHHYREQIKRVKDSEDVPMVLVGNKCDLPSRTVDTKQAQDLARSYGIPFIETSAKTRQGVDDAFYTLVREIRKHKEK
Chain of KRAS G13D (P62937 whole entry): as the sequence (P62937 whole entry) above
Outline: as §1

KRAS Q61H = KRAS Q61H (Homo sapiens, UniProt P01116+P62937, Q61H); conditions: KRAS Q61H; read-out: KRAS Q61H FRET data IC50
Chain of KRAS Q61H (P01116 1-169 isoform P01116-2 Q61H limits assumed): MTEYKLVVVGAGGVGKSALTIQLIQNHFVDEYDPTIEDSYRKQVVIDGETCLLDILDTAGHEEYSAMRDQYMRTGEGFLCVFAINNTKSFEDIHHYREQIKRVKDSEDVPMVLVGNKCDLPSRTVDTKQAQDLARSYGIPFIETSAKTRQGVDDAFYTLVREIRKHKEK
Chain of KRAS Q61H (P62937 whole entry): as the sequence (P62937 whole entry) above
Outline: as §1

KRAS WT = KRAS WT (Homo sapiens, UniProt P01116+P62937); conditions: Ras-Raf disruption, with Cyclophilin A; read-out: KRAS WT FRET data IC50
Chain of KRAS WT (P01116 1-169 isoform P01116-2 limits assumed): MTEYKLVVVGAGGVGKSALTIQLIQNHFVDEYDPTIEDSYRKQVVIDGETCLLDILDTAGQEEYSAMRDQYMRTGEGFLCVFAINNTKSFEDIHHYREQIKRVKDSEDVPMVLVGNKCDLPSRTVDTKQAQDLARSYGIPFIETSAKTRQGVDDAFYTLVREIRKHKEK
Chain of KRAS WT (P62937 whole entry): as the sequence (P62937 whole entry) above
Outline: as §1

NRAS G12C = NRAS G12C (Homo sapiens, UniProt P01111+P62937, G12C); conditions: NRAS G12C; read-out: NRAS G12C FRET data IC50
Chain of NRAS G12C (P01111 whole entry G12C): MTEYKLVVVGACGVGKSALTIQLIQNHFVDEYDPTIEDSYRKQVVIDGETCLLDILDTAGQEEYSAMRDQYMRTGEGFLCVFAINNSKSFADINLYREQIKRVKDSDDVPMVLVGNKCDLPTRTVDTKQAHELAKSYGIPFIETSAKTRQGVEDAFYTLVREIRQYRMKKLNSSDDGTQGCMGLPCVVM
Chain of NRAS G12C (P62937 whole entry): as the sequence (P62937 whole entry) above
Outline: as §1

NRAS Q61K = NRAS Q61K (Homo sapiens, UniProt P01111+P62937, Q61K); conditions: NRAS Q61K; read-out: NRAS Q61K FRET data IC50
Chain of NRAS Q61K (P01111 whole entry Q61K): as the sequence (P01111 whole entry G12C) above, with C12G, Q61K counted along it
Chain of NRAS Q61K (P62937 whole entry): as the sequence (P62937 whole entry) above
Outline: as §1

NRAS Q61R = NRAS Q61R (Homo sapiens, UniProt P01111+P62937, Q61R); conditions: NRAS Q61R; read-out: NRAS Q61R FRET data IC50
Chain of NRAS Q61R (P01111 whole entry Q61R): as the sequence (P01111 whole entry G12C) above, with C12G, Q61R counted along it
Chain of NRAS Q61R (P62937 whole entry): as the sequence (P62937 whole entry) above
Outline: as §1

NRAS WT = NRAS WT (Homo sapiens, UniProt P01111+P62937); conditions: NRAS WT; read-out: NRAS WT FRET data IC50
Chain of NRAS WT (P01111 whole entry): as the sequence (P01111 whole entry G12C) above, with C12G counted along it
Chain of NRAS WT (P62937 whole entry): as the sequence (P62937 whole entry) above
Outline: as §1

KRAS G12C = KRAS G12C (Homo sapiens, UniProt P01116+P62937, G12C); conditions: Ras-Raf disruption, with Cyclophilin A; read-out: KRAS G12C FRET data IC50
Chain of KRAS G12C (P01116 1-169 isoform P01116-2 G12C limits assumed): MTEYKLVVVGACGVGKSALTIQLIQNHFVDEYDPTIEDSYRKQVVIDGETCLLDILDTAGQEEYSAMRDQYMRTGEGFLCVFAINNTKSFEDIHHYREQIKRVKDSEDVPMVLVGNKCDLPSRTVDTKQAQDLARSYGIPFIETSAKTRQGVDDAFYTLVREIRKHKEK
Chain of KRAS G12C (P62937 whole entry): as the sequence (P62937 whole entry) above
Outline: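 TR-FRET read-out after 1.5 h with anti-His Eu-W1024 (10 nM) and anti-GST APC (50 nM), following 3 h at 25 °C of compound (top 30 μM, 3-fold, 10 points) with 25 μM Cyclophilin A, 12.5 nM GMPPNP-loaded K-Ras G12C and 50 nM BRAF RBD; IC50 reported.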

Chain of KRAS G12D (P01116 1-169 isoform P01116-2 G12D limits assumed): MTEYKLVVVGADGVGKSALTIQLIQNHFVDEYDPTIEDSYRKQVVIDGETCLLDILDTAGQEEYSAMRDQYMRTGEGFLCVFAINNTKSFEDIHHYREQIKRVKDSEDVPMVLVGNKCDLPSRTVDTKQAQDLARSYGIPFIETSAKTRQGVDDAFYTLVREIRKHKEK
Chain of KRAS G12D (P62937 whole entry): as the sequence (P62937 whole entry) above

Compound CCn1c(-c2cccnc2[C@H](C)OC)c2c3cc(ccc31)-c1csc(n1)C[C@H](NC(=O)[C@H](C(C)C)N(C)C(=O)N(C)[C@H]1CCCN(C(=O)[C@H]3CN3)C1)C(=O)N1CCC[C@H](N1)C(=O)OCC(C)(C)C2 (atropisomer, axis not shown) [Example 295] has an IC50 (KRAS G12D) of 1000 to 10000 nM, an IC50 (KRAS G12S) of 1000 to 10000 nM and an IC50 (KRAS G12V) of 1000 to 10000 nM. For the same compound, the IC50 (KRAS G13C) was 1000 to 10000 nM, the IC50 (KRAS G13D) was 1000 to 10000 nM and the IC50 (KRAS Q61H) was 100 to 1000 nM. For the same compound, the IC50 (KRAS WT) was 100 to 1000 nM, the IC50 (NRAS G12C) was 100 to 1000 nM and the IC50 (NRAS Q61K) was 100 to 1000 nM. The IC50 (NRAS Q61R) was 1000 to 10000 nM, the IC50 (NRAS WT) was 100 to 1000 nM and the IC50 (KRAS G12C) was 100 to 1000 nM.

With CCn1c(-c2cccnc2[C@H](C)OC)c2c3cc(ccc31)-c1csc(n1)C[C@H](NC(=O)[C@H](C(C)C)N(C)C(=O)N(C)[C@H]1CCN(C(=O)[C@H]3CN3)C1)C(=O)N1CCC[C@H](N1)C(=O)OCC(C)(C)C2 (atropisomer, axis not shown) [Example 296] the IC50 (KRAS G12D) was 1000 to 10000 nM, the IC50 (KRAS G12S) was 100 to 1000 nM and the IC50 (KRAS G12V) was 1000 to 10000 nM. For the same compound, the IC50 (KRAS G13C) was 100 to 1000 nM, the IC50 (KRAS G13D) was 1000 to 10000 nM and the IC50 (KRAS Q61H) was 100 to 1000 nM. For the same compound, the IC50 (KRAS WT) was 100 to 1000 nM, the IC50 (NRAS G12C) was 100 to 1000 nM and the IC50 (NRAS Q61K) was 100 to 1000 nM. The IC50 (NRAS Q61R) was 100 to 1000 nM, the IC50 (NRAS WT) was 100 to 1000 nM and the IC50 (KRAS G12C) was 100 to 1000 nM.

Compound CCn1c(-c2cccnc2[C@H](C)OC)c2c3cc(ccc31)-c1csc(n1)C[C@H](NC(=O)[C@H](C(C)C)N(C)C(=O)N(C)[C@H]1CCN(C(=O)[C@@H]3CN3)C1)C(=O)N1CCC[C@H](N1)C(=O)OCC(C)(C)C2 (atropisomer, axis not shown) [Example 310] has an IC50 (KRAS G12D) of 1000 to 10000 nM, an IC50 (KRAS G12S) of 100 to 1000 nM and an IC50 (KRAS G12V) of 100 to 1000 nM. It also gave an IC50 (KRAS G13C) of 100 to 1000 nM, an IC50 (KRAS G13D) of 1000 to 10000 nM and an IC50 (KRAS Q61H) of 100 to 1000 nM. It also gave an IC50 (KRAS WT) of 100 to 1000 nM, an IC50 (NRAS G12C) of 100 to 1000 nM and an IC50 (NRAS Q61K) of 100 to 1000 nM. The IC50 (NRAS Q61R) was 100 to 1000 nM, the IC50 (NRAS WT) was 100 to 1000 nM and the IC50 (KRAS G12C) was 100 to 1000 nM.

With CCn1c(-c2cccnc2[C@H](C)OC)c2c3cc(ccc31)-c1cc(O)cc(c1)C[C@H](NC(=O)[C@H](C(C)C)N(C)C(=O)[C@]1(F)CCN(C(=O)[C@H]3CN3)C1)C(=O)N1CCC[C@H](N1)C(=O)OCC(C)(C)C2 (atropisomer, axis not shown) [Example 311] the IC50 (KRAS G12D) was 100 to 1000 nM, the IC50 (KRAS G12S) was 100 to 1000 nM and the IC50 (KRAS G12V) was 100 to 1000 nM. The IC50 (KRAS G13C) was 10 to 100 nM, the IC50 (KRAS G13D) was 100 to 1000 nM and the IC50 (KRAS Q61H) was 10 to 100 nM. For the same compound, the IC50 (KRAS WT) was 100 to 1000 nM, the IC50 (NRAS G12C) was under 10 nM and the IC50 (NRAS Q61K) was 100 to 1000 nM. The IC50 (NRAS Q61R) was 100 to 1000 nM, the IC50 (NRAS WT) was 10 to 100 nM and the IC50 (KRAS G12C) was under 10 nM.

For CCn1c(-c2cccnc2[C@H](C)OC)c2c3cc(ccc31)-c1csc(n1)C[C@H](NC(=O)[C@H](C(C)C)N(C)C(=O)N1CCC(CN(C)C(=O)[C@H]3CN3)CC1)C(=O)N1CCC[C@H](N1)C(=O)OCC(C)(C)C2 (atropisomer, axis not shown) [Example 326], the IC50 (KRAS G12D) was 100 to 1000 nM, the IC50 (KRAS G12S) was 10 to 100 nM and the IC50 (KRAS G12V) was 10 to 100 nM. The IC50 (KRAS G13C) was 10 to 100 nM, the IC50 (KRAS G13D) was 100 to 1000 nM and the IC50 (KRAS Q61H) was 10 to 100 nM. For the same compound, the IC50 (KRAS WT) was 10 to 100 nM, the IC50 (NRAS G12C) was 10 to 100 nM and the IC50 (NRAS Q61K) was 10 to 100 nM. The IC50 (NRAS Q61R) was 10 to 100 nM, the IC50 (NRAS WT) was 10 to 100 nM and the IC50 (KRAS G12C) was 10 to 100 nM.

In the case of CCn1c(-c2cccnc2[C@H](C)OC)c2c3cc(ccc31)-c1cc(O)cc(c1)C[C@H](NC(=O)[C@H](C(C)C)N(C)C(=O)CN(C)S(=O)(=O)[C@H]1CN1C)C(=O)N1CCC[C@H](N1)C(=O)OCC(C)(C)C2 (single isomer, unassigned) [Example 91], the IC50 (KRAS G12D) is reported as 100 to 1000 nM, the IC50 (KRAS G12S) is reported as 10 to 100 nM and the IC50 (KRAS G12V) is reported as 100 to 1000 nM. It also gave an IC50 (KRAS G13C) of 10 to 100 nM, an IC50 (KRAS G13D) of 100 to 1000 nM and an IC50 (KRAS Q61H) of 10 to 100 nM. The IC50 (KRAS WT) was 10 to 100 nM, the IC50 (NRAS G12C) was 10 to 100 nM and the IC50 (NRAS Q61K) was 100 to 1000 nM. The IC50 (NRAS Q61R) was 100 to 1000 nM, the IC50 (NRAS WT) was 10 to 100 nM and the IC50 (KRAS G12C) was 10 to 100 nM.
